Patent publication US20240254138A1, “TRICYCLIC PYRIMIDINES AS CYCLIN-DEPENDENT KINASE 7 (CDK7) INHIBITORS” (JANSSEN PHARMACEUTICA NV, priority 2021, published 2024)
Where two headings read alike, the source gives them in different places.

How the values were obtained:
[1] = molecular target: CDK7/cyclinH/MAT1 trimeric complex (Homo sapiens, UniProt P50613); assay: In vitro CDK7 assay, potency of irreversible covalent inhibitors (kinact/KI), coupled PK/LDH ADP readout at 340 nm; conditions: for kinact: read-out: CDK7 (20 nM enz.) (kinact, s^−1), 20 nM enzyme
Sequence of CDK7/cyclinH/MAT1 trimeric complex (P50613 whole entry): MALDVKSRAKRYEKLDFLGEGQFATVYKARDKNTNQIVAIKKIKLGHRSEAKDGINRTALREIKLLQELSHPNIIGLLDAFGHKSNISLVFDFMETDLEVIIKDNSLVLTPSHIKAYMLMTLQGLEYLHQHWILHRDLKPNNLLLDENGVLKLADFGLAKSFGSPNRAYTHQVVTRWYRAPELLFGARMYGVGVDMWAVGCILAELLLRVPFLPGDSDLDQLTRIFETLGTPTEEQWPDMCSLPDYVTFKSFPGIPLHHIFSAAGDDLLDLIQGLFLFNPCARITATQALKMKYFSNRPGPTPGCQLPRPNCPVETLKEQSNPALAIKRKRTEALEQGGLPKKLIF
Sequence of CDK7/cyclinH/MAT1 trimeric complex (P51946 whole entry partner): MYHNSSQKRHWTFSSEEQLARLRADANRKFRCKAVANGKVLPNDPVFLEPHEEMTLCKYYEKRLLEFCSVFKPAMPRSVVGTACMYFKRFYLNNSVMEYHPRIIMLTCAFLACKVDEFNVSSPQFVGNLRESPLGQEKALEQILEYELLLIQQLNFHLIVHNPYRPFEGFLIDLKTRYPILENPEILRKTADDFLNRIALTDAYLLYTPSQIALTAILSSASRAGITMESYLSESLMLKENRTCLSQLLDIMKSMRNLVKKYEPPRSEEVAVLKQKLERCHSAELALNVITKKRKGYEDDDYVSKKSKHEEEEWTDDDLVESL
Sequence of CDK7/cyclinH/MAT1 trimeric complex (P51948 whole entry partner): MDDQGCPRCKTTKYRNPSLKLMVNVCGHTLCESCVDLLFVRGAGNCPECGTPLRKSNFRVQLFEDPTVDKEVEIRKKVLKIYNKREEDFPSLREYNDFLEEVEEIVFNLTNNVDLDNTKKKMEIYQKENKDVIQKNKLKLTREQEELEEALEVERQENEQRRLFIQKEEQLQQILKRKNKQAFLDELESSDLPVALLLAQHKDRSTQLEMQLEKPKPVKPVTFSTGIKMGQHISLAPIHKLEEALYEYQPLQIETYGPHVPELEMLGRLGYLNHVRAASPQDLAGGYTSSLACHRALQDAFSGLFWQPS

[2] = tested on: RNA Polymerase II Serine 5 phosphorylation (Rpb1 CTD, downstream substrate of CDK7) in A549 cells; assay: Imaging-based cellular RNA PolII Ser5 phosphorylation assay in A549 cells; type: cell-based, human; conditions: wild-type CDK7, RNA PolII Ser5 phosphorylation, averaged over all measurements; for IC50: Homo sapiens, A549, A549 cells, read-out: CDK7_A549 Wild-type CDK7 (pIC50) (converted); for CDK7_A549 Wild-type CDK7 (pIC50): A549 cells
How it was run: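 IC50 derived by fitting % control (DMSO high, 10 μM reference low) against concentration, with Hill slope. Readout: high-content imaging of phospho-Ser5 Rpb1 CTD antibody staining in fixed, permeabilized A549 cells exposed to compound 3 h after 20 h culture in 1% FBS DMEM.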

[3] = tested on: RNA Polymerase II Serine 5 phosphorylation in A549 cells overexpressing CDK7-mutant (C312S); assay: Imaging-based cellular RNA PolII Ser5 phosphorylation assay in A549 cells overexpressing CDK7-mutant (C312S); type: cell-based, human; conditions: RNA PolII Ser5 phosphorylation, averaged over all measurements; for IC50: Homo sapiens, A549, A549 cells overexpressing CDK7-mutant (C312S), read-out: CDK7_A549 mutant hCDK7(pIC50) (converted); for CDK7_A549 mutant hCDK7(pIC50): A549 cells overexpressing CDK7-mutant (C312S)
How it was run: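 Readout was automated imaging of anti-phospho-Ser5 Rpb1 CTD immunofluorescence, with IC50 fitted to % control versus concentration. Cells were A549 stably overexpressing non-covalently targetable CDK7 C312S alongside wild-type, exposed to compound 3 h at 37 °C. DMSO and 10 μM reference compound served as controls.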

[4] = CDK7 (20 nM enz.) (KI, μM), 20 nM enzyme
[5] = read-out: CDK7 (20 nM enz.) (kinact/KI, M^−1*s^−1), 20 nM enzyme

SMILES	Ki [1, 4]	kinact [1]	kinact/KI [1, 5]	IC50 [2]	IC50 [3]	further results
C=CC(=O)N1CCC(N2CC(c3cc4c(c(C)n3)O[C@@H](C)c3c(C5CCOCC5)ccnc3N4)C2)CC1 (single isomer, unassigned) [Compound 468]	2.21 µM	3.64e-05 s⁻¹	16.5 M⁻¹ s⁻¹	2040 nM	> 10 µM	
C=CC(=O)N1CC[C@@H](N2CC(c3cc4c(c(C5CC5)n3)O[C@H](C)c3c(N5CCOCC5)ccnc3N4)C2)C1 (single isomer, unassigned) [Compound 469]	1.32 µM	4.03e-05 s⁻¹	30.5 M⁻¹ s⁻¹	2140 nM	> 10 µM	
CC#CC(=O)N1CC[C@H](N2CC(c3cc4c(c(C5CC5)n3)O[C@@H](C)c3c(N5CCOCC5)ccnc3N4)C2)C1 (single isomer, unassigned) [Compound 470]	0.0394 µM	3e-05 s⁻¹	761 M⁻¹ s⁻¹	251 nM	> 10 µM	
CC#CC(=O)N1CC[C@H](N2CC(c3cc4c(c(C5CC5)n3)O[C@H](C)c3c(N5CCOCC5)ccnc3N4)C2)C1 (single isomer, unassigned) [Compound 471]	3.64 µM	3.28e-05 s⁻¹	9.02 M⁻¹ s⁻¹	7080 nM	> 10 µM	
CC#CC(=O)N1CC[C@@H](N2CC(c3cc4c(c(C5CC5)n3)O[C@@H](C)c3c(N5CCOCC5)ccnc3N4)C2)C1 (single isomer, unassigned) [Compound 472]			79.5 M⁻¹ s⁻¹	204 nM	> 10 µM	
CC#CC(=O)N1CC(N2CC(c3cc(C#N)c4c(c3)Nc3nccc(C5CCOCC5)c3[C@@H](C)O4)C2)C1 (single isomer, unassigned) [Compound 475]			351 M⁻¹ s⁻¹	204 nM	7.59 µM	
C=CC(=O)N1CC(N2CC(c3cc4c(c(C)n3)O[C@H](C)c3c(C5CCOCC5)ccnc3N4)C2)C1 (single isomer, unassigned) [Compound 477]			342 M⁻¹ s⁻¹	166 nM	> 10 µM	
C=CC(=O)N1CC[C@H](N2CC(c3cc4c(c(C)n3)O[C@H](C)c3c(-c5cnn(C)c5)ccnc3N4)C2)C1 (single isomer, unassigned) [Compound 478]			292 M⁻¹ s⁻¹	158 nM	> 10 µM	
C=CC(=O)N1CC(N2CC(c3cc4c(c(C)n3)O[C@@H](C)c3c(C5CCOCC5)ccnc3N4)C2)C1 (single isomer, unassigned) [Compound 480]			2.97 M⁻¹ s⁻¹	4570 nM	> 10 µM	
C=CC(=O)N1CC[C@@H](N2CC(c3cc4c(c(C)n3)O[C@H](C)c3c(-c5cnn(C)c5)ccnc3N4)C2)C1 (single isomer, unassigned) [Compound 482]			339 M⁻¹ s⁻¹	89.1 nM	> 10 µM	
CC#CC(=O)N1CC(N2CC(c3cc(C#N)c4c(c3)Nc3nccc(C5CCOCC5)c3[C@H](C)O4)C2)C1 (single isomer, unassigned) [Compound 486]			1.32 M⁻¹ s⁻¹	5620 nM	> 10 µM	
CC#CC(=O)N1CC(N2CC(c3cc4c(c(C)n3)O[C@@H](C)c3c(C5CCOCC5)ccnc3N4)C2)C1 (single isomer, unassigned) [Compound 487]			1.54 M⁻¹ s⁻¹	> 10000 nM	> 10 µM	
CC#CC(=O)N1CC(N2CC(c3cc4c(c(C)n3)O[C@H](C)c3c(C5CCOCC5)ccnc3N4)C2)C1 (single isomer, unassigned) [Compound 488]	0.328 µM	4.23e-05 s⁻¹	129 M⁻¹ s⁻¹	~302 nM	> 10 µM	
C=CC(=O)N1CCC(N2CC(c3cc4c(c(C#N)n3)O[C@H](C)c3c(N5CCOCC5)ccnc3N4)C2)CC1 (single isomer, unassigned) [Compound 489]			305 M⁻¹ s⁻¹	58.9 nM	3.47 µM	
C=CC(=O)N1CCC(N2CC(c3cc4c(c(C#N)n3)O[C@@H](C)c3c(N5CCOCC5)ccnc3N4)C2)CC1 (single isomer, unassigned) [Compound 491]	0.403 µM	2.48e-05 s⁻¹	61.4 M⁻¹ s⁻¹	479 nM	> 10 µM	
C=CC(=O)N1CC[C@@H](N2CC(c3cc4c(c(C(F)(F)F)n3)OCc3c(-c5cnn(C)c5)ccnc3N4)C2)C1 (single isomer, unassigned) [Compound 495]	0.0763 µM	5.75e-05 s⁻¹	754 M⁻¹ s⁻¹	145 nM	> 10 µM	
C=CC(=O)N1CC[C@H](N2CC(c3cc4c(c(C(F)(F)F)n3)OCc3c(-c5cnn(C)c5)ccnc3N4)C2)C1 (single isomer, unassigned) [Compound 497]	0.0437 µM	5.55e-05 s⁻¹	1270 M⁻¹ s⁻¹	138 nM	> 10 µM	
CC#CC(=O)N1CC(N2CCC(c3cc4c(c(C5CC5)n3)O[C@@H](C)c3c(N5CCOCC5)ccnc3N4)CC2)C1 (single isomer, unassigned) [Compound 498]	0.0867 µM	5.15e-05 s⁻¹	594 M⁻¹ s⁻¹	148 nM	> 10 µM	
CC#CC(=O)N1CC(N2CCC(c3cc4c(c(C5CC5)n3)O[C@H](C)c3c(N5CCOCC5)ccnc3N4)CC2)C1 (single isomer, unassigned) [Compound 499]						CDK7 (20 nM enz.) (kinact, s^−1) ([1]; 20 nM enzyme): 4.482e-05 s⁻¹; CDK7 (20 nM enz.) (kinact/KI, M^−1*s^−1) ([1]; 20 nM enzyme): 20.4314 M⁻¹ s⁻¹; Ki ([1]; read-out: CDK7 (20 nM enz.) (KI), 20 nM enzyme): 2.19 µM; CDK7_A549 Wild-type CDK7 (pIC50) [2]: 5.74; CDK7_A549 mutant hCDK7(pIC50) [3]: <5
C=CC(=O)N1CC[C@H](N2CC(c3cc4c(c(C(F)(F)F)n3)O[C@@H](C)c3c(N5CCOCC5)ccnc3N4)C2)C1 (single isomer, unassigned) [Compound 500]			12.7 M⁻¹ s⁻¹	1200 nM	> 10 µM	
C=CC(=O)N1CC[C@H](N2CC(c3cc4c(c(C(F)(F)F)n3)O[C@H](C)c3c(N5CCOCC5)ccnc3N4)C2)C1 (single isomer, unassigned) [Compound 501]	2.35 µM	3.59e-05 s⁻¹			> 10 µM	CDK7 (20 nM enz.) (kinact/KI, M^−1*s^−1) ([1]; 20 nM enzyme): 15.2689 M⁻¹ s⁻¹; CDK7_A549 Wild-type CDK7 (pIC50) [2]: 5.78
CC#CC(=O)N1CCC(N2CC(c3cc4c(c(C(F)(F)F)n3)O[C@@H](C)c3c(N5CCOCC5)ccnc3N4)C2)CC1 (single isomer, unassigned) [Compound 502]			9.74 M⁻¹ s⁻¹	603 nM	> 10 µM	
C=CC(=O)N1CC[C@H](N2CC(c3cc4c(c(C(F)(F)F)n3)O[C@H](C)c3c(N5CCOCC5)ccnc3N4)C2)C1 (single isomer, unassigned) [Compound 503]						CDK7 (20 nM enz.) (kinact/KI, M^−1*s^−1) ([1]; 20 nM enzyme): 629.38 M⁻¹ s⁻¹; CDK7_A549 Wild-type CDK7 (pIC50) [2]: 6.88; CDK7_A549 mutant hCDK7(pIC50) [3]: 5.12
C=CC(=O)N1CC[C@@H](N2CC(c3cc4c(c(C(F)(F)F)n3)O[C@@H](C)c3c(N5CCOCC5)ccnc3N4)C2)C1 (single isomer, unassigned) [Compound 504]			681 M⁻¹ s⁻¹	47.9 nM	7.76 µM	
CC#CC(=O)N1CCC(N2CC(c3cc4c(c(C(F)(F)F)n3)O[C@H](C)c3c(N5CCOCC5)ccnc3N4)C2)CC1 (single isomer, unassigned) [Compound 505]			246 M⁻¹ s⁻¹	38 nM	2.4 µM	
C=CC(=O)N1CC[C@@H](N2CC(c3cc4c(c(C#N)n3)O[C@H](C)c3c(N5CCOCC5)ccnc3N4)C2)C1 (single isomer, unassigned) [Compound 506]				102 nM	8.32 µM	kinact/KI ([1]; read-out: CDK7 (20 nM enz.) (kobs/[I], M^−1*s^−1), 20 nM enzyme): 348 M⁻¹ s⁻¹
